This data set can be described thus: Log P by HPLC on reversed phase columns (EEC directive 79/831 Annex V.A8). It is filed as physicochemical. Conditions: method [a]: LC-UV, acidic range, 0.1% formic acid in water and acetonitrile. The procedure, abridged:
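Reversed-phase HPLC per EEC 79/831 Annex V.A8, LC-UV with 10→95% acetonitrile linear gradient; eluent [a] 0.1% formic acid (acidic), [b] 0.001 M ammonium acetate (neutral), [c] 0.1% phosphoric acid (acidic). Calibrated with C3–C16 straight-chain alkan-2-ones, linear interpolation of retention times; multiple values joined by "+".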
`N#Cc1c(Br)sc(C(=O)O)c1Cl` [II.001]: the LogP was 1.66^[a].
The value for `N#Cc1c(Cl)sc(C(=O)O)c1Cl` [II.002] was 1.59^[a].
The value for `O=C(O)c1sc(Cl)c(Cl)c1C(F)F` [II.003] was 2.39^[a]; that for `O=C(O)c1sc(Br)c(Br)c1C(F)(F)F` [II.004] was 2.44^[a].
The value for `O=C(O)c1sc(Cl)c(Br)c1F` [II.005] was 2.14^[a]; that for `O=C(O)c1sc(Br)c(Br)c1C(F)F` [II.006] was 2.46^[a].
Consider `Cc1c(C(=O)O)sc(Br)c1C#N` [II.007], for which the LogP was 2.03^[a].
Under `Cc1c(C(=O)O)sc(Cl)c1C#N` [II.008] stands 1.94^[a]; under `O=C(O)c1sc(Br)c(Cl)c1F` [II.009], 2.18^[a].
Turning to `O=C(O)c1sc(Br)c(Cl)c1Cl` [II.010], the LogP was 2.51^[a].
For `O=C(O)c1sc(Cl)c(Br)c1Br` [II.011], the LogP was 2.57^[a].
The value for `O=C(O)c1sc(Cl)c(Br)c1Cl` [II.012] was 2.44^[a]; that for `Cc1sc(C(=O)O)c(F)c1Br` [II.013] was 2.08^[a]; that for `Cc1c(C(=O)O)sc(Cl)c1Br` [II.014] was 2.80^[a].
For the compound `Cc1c(C(=O)O)sc(Br)c1Cl` [II.015], the LogP was 2.75^[a].
On to `Cc1c(C(=O)O)sc(C#N)c1Cl` [II.016], for which the LogP is 1.95^[a].
Under `Cc1c(C(=O)O)sc(I)c1Br` [II.017] stands 2.86^[a]; under `Cc1c(C(=O)O)sc(Br)c1I` [II.018], 2.92^[a]; under `COC(=O)c1sc(Br)c(Br)c1C(F)(F)F` [II.019], 4.08^[a].
Turning to `COC(=O)c1sc(Br)c(Cl)c1F` [II.020], the LogP was 3.47^[a].
For `COC(=O)c1sc(Br)c(C#N)c1Cl` [II.021], the LogP was 2.87^[a].
The value for `COC(=O)c1sc(Cl)c(C#N)c1Cl` [II.022] was 2.82^[a]; that for `COC(=O)c1sc(Cl)c(Cl)c1C(F)F` [II.023] was 3.77^[a].
Under `Cc1sc(C(=O)OCC(C)C)c(F)c1Br` [II.024] stands 4.77^[a]; under `COC(=O)c1sc(Cl)c(Br)c1F` [II.025], 3.47^[a]; under `COC(=O)c1sc(Cl)c(Br)c1Br` [II.026], 4.02^[a].
Regarding `COC(=O)c1sc(Cl)c(Br)c1Cl` [II.027], the LogP is 3.94^[a].
The value for `COC(=O)c1sc(Br)c(C#N)c1C` [II.029] was 3.06^[a]; that for `CCOC(=O)c1sc(I)c(Br)c1C` [II.030] was 5.03^[a].
For `CCOC(=O)c1sc(Br)c(I)c1C` [II.031], the LogP was 5.03^[a].
Consider `CCOC(=O)c1sc(Cl)c(Br)c1C` [II.032], for which the LogP was 5.00^[a].
As for `N#Cc1sc(C(=O)O)cc1Cl` [II.034], the LogP is 1.33^[a].
Under `O=C(O)c1cc(Br)c(F)s1` [II.035] stands 1.94^[a]; under `N#Cc1sc(C(=O)O)cc1Br` [II.036], 1.41^[a]; under `O=C(O)c1cc(F)c(Cl)s1` [II.037], 1.89^[a].
Under `Cc1cc(C(=O)O)sc1Cl` [II.038] stands 2.16^[a].
On to `O=C(O)c1cc(F)c(Br)s1` [II.039], for which the LogP is 1.02^[a].
Take `O=C(O)c1cc(Cl)c(Br)s1` [II.040]: the LogP was 2.23^[a].
For the compound `N#Cc1cc(C(=O)O)sc1Cl` [II.041], the LogP is 1.44^[a].
The value for `O=C(O)c1cc(Br)c(Cl)s1` [II.043] was 2.28^[a]; that for `N#Cc1c(Br)sc(C(=O)O)c1Br` [II.044] was 1.73^[a].
In the case of `COC(=O)c1cc(C#N)c(Cl)s1` [II.045], the LogP is 2.44^[a].
As to `COC(=O)c1cc(Cl)c(Br)s1` [II.047], the LogP was 3.29^[a].
Under `CCOC(=O)c1cc(Br)c(Cl)s1` [II.048] stands 4.21^[a].

(Values after US12642270B2, “Substituted thiophene carboxamides, thiophene carboxylic acids and derivatives thereof” (Bayer Aktiengesellschaft, priority 2019, dated 2026).)
